# Experimental data from patent publication US12466820B2, “Amino quinazoline derivatives as P2X3 inhibitors” (CHIESI FARMACEUTICI S.p.A., priority 2019, dated 2025).
# What was measured:
# h P2X2/3 = target: T1, h P2X2/3 (Homo sapiens, UniProt P56373+Q9UBL9); assay: In vitro electrophysiology assay for P2X2/3 (same protocol, 10 μM ATP as agonist); assay type: cell-based; conditions: Table 7, range of activity
# T1 sequence (P56373 1-397): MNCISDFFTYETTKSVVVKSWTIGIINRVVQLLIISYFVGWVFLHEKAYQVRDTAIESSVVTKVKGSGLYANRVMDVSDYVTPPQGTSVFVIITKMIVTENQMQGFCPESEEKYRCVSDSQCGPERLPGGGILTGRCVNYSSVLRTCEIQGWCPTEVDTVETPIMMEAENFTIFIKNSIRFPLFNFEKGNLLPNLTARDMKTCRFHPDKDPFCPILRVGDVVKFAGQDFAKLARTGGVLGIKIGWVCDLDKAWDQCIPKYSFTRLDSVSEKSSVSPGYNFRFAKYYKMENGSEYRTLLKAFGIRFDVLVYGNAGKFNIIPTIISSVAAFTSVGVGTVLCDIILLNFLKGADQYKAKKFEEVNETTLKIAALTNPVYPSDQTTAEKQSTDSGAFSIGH
# T1 sequence (Q9UBL9 1-471): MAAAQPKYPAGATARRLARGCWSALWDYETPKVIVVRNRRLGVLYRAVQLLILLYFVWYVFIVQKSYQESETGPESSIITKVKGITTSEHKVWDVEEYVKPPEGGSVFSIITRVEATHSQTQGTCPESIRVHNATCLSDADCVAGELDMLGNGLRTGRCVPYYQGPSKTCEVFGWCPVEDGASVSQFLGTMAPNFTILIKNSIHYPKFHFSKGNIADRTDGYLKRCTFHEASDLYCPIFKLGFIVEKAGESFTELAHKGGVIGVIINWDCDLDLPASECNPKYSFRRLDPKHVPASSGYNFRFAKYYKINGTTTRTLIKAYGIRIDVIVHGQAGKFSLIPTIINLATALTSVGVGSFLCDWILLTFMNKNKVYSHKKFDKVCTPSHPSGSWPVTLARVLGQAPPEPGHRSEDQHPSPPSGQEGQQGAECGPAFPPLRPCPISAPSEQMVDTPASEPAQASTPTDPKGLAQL
# h P2X3 = target: T2, h P2X3 (Homo sapiens, UniProt P56373); assay: In vitro electrophysiology assay for P2X3 (automated whole-cell patch clamp, Sophion Qube); assay type: cell-based; conditions: range of activity
# T2 sequence (P56373 1-397): T1 sequence (P56373 1-397)
# How it was run: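 Whole-cell automated patch clamp at room temperature, cells held at −60 mV; after two 800 nM α,β-MeATP baseline responses, antagonist preincubated 10 min then co-applied with 800 nM α,β-MeATP. Inhibition of peak current vs second agonist response; IC50 from 10-concentration curves, one concentration per cell.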
compound,measurement,setting,value
"COc1cc(-c2ncc(C)s2)cc2c(NCc3nc(C)no3)ncnc12 [Example 113, 8-methoxy-N-[(3-methyl-1,2,4-oxadiazol-5-yl)methyl]-6-(5-methylthiazol-2-yl)quinazolin-4-amine]",IC50,h P2X2/3,316 to 3160 nM
same,IC50,"h P2X3; Table 6, inhibition of P2X3 current, agonist α,β-MeATP (800 nM)",< 316 nM
same,IC50,h P2X3; Table 7,< 316 nM
